Test results from patent US20250120967A1, “TYROSINE KINASES INHIBITORS AND USES THEREOF” (GREAT NOVEL THERAPEUTICS BIOTECH & MEDICALS CORPORATION, priority 2023, published 2025).

Key:
Experiment in all cases: Tyrosine kinase inhibition assay
Assay type in all cases: biochemical
Conditions in all cases: single concentration 1.0 μM, read-out: percent inhibition
[1] = target: FES (FPS) (Homo sapiens, UniProt P07332)
How it was run: (§1)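 Values are percent inhibition at 1.0 μM compound, with inhibition above 80% defined as a hit. Peptide substrate phosphorylation was assessed by Z′-LYTE at apparent-Km ATP in HEPES pH 7.5 buffer containing MgCl2, EGTA and BRIJ-35.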

[2] = target: FGFR2 (Homo sapiens, UniProt P21802)
How it was run: as §1

[3] = target: BRAF V599E (Homo sapiens, UniProt P15056, V600E)
How it was run: as §1

[4] = target: AKT3 (PKB gamma) (Homo sapiens, UniProt Q9Y243)
How it was run: as §1

[5] = target: PDGFRB (PDGFR beta) (Homo sapiens, UniProt P09619)
How it was run: as §1

[6] = target: PEAK1 (Homo sapiens, UniProt Q9H792)
How it was run: as §1

[7] = target: CSK (Homo sapiens, UniProt P41240)
How it was run: as §1

[8] = target: ERBB2 (HER2) (Homo sapiens, UniProt P04626)
How it was run: as §1

[9] = target: AURKB (Aurora B) (Homo sapiens, UniProt Q96GD4)
How it was run: as §1

[10] = target: BLK (Homo sapiens, UniProt P51451)
How it was run: as §1

[11] = target: T1, ZAP70 (Homo sapiens, UniProt P43403)
T1 sequence (P43403 1-619): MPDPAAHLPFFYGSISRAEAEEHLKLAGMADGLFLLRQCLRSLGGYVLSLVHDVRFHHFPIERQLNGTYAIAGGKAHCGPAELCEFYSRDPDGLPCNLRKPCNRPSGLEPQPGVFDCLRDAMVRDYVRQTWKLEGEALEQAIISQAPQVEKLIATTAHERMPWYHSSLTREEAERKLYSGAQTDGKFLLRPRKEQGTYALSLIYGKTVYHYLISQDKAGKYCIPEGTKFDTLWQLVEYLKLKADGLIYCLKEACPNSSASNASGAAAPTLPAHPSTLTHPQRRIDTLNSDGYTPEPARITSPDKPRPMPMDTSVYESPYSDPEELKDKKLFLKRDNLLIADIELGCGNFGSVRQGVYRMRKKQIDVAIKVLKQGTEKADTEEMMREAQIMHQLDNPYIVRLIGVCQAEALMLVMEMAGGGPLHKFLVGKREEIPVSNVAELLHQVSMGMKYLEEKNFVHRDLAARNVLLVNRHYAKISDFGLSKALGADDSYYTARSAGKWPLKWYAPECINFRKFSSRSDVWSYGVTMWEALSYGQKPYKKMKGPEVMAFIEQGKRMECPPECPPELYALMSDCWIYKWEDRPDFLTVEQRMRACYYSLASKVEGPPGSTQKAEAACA
How it was run: as §1

[12] = target: PIK3C2A (PI3K-C2 alpha) (Homo sapiens, UniProt O00443)
How it was run: as §1

[13] = target: DDR1 (Homo sapiens, UniProt Q08345)
How it was run: as §1

[14] = target: ERBB4 (HER4) (Homo sapiens, UniProt Q15303)
How it was run: as §1

[15] = target: EPHA7 (Homo sapiens, UniProt Q15375)
How it was run: as §1

[16] = target: PTK2B (FAK2) (Homo sapiens, UniProt Q14289)
How it was run: as §1

[17] = target: T2, TXK (Homo sapiens, UniProt P42681)
T2 sequence (P42681 1-527): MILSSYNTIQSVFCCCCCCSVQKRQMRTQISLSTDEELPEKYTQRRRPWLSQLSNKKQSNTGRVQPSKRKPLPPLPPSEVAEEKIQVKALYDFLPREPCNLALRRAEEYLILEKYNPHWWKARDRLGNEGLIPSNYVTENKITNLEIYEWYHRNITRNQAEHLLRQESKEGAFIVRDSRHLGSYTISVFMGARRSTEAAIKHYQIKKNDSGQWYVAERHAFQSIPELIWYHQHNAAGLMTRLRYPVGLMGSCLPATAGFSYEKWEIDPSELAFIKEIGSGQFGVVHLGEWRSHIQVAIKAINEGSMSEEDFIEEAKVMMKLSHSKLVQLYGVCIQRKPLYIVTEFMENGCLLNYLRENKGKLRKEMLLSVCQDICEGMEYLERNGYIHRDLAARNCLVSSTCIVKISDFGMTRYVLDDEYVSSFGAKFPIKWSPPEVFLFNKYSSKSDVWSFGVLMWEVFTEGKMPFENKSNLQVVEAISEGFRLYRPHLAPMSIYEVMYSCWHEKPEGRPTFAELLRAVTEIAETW
How it was run: as §1

[18] = target: INSR (Homo sapiens, UniProt P06213)
How it was run: as §1

[19] = target: MAPK10 (JNK3) (Homo sapiens, UniProt P53779)
How it was run: as §1

Chain of PDGFRB (PDGFR beta) (P09619 33-1106): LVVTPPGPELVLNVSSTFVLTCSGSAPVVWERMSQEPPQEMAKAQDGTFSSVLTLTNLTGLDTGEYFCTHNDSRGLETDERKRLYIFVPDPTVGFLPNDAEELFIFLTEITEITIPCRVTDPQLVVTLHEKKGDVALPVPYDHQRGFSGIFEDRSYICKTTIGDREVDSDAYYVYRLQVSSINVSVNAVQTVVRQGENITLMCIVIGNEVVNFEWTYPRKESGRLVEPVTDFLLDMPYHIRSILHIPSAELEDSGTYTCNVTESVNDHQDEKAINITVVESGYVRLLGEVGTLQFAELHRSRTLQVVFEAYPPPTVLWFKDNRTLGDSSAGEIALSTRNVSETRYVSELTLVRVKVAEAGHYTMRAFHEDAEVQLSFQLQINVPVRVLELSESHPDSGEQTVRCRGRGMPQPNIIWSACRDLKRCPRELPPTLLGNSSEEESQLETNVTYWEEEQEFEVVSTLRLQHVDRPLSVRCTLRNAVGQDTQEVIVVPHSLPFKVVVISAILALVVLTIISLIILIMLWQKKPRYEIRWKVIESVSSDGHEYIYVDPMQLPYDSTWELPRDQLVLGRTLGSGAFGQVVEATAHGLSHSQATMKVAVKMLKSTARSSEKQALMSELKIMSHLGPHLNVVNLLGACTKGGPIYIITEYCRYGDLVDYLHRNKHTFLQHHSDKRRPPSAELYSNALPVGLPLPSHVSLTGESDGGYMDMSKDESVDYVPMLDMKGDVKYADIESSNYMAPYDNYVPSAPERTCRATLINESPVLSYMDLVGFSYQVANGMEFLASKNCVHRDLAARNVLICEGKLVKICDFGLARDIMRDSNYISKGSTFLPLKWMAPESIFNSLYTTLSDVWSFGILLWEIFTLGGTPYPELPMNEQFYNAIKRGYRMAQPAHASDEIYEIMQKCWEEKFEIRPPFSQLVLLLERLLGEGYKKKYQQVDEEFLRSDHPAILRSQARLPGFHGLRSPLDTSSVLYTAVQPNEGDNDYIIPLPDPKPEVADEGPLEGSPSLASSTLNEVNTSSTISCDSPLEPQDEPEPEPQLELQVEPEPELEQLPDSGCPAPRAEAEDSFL
Chain of INSR (P06213 28-1382): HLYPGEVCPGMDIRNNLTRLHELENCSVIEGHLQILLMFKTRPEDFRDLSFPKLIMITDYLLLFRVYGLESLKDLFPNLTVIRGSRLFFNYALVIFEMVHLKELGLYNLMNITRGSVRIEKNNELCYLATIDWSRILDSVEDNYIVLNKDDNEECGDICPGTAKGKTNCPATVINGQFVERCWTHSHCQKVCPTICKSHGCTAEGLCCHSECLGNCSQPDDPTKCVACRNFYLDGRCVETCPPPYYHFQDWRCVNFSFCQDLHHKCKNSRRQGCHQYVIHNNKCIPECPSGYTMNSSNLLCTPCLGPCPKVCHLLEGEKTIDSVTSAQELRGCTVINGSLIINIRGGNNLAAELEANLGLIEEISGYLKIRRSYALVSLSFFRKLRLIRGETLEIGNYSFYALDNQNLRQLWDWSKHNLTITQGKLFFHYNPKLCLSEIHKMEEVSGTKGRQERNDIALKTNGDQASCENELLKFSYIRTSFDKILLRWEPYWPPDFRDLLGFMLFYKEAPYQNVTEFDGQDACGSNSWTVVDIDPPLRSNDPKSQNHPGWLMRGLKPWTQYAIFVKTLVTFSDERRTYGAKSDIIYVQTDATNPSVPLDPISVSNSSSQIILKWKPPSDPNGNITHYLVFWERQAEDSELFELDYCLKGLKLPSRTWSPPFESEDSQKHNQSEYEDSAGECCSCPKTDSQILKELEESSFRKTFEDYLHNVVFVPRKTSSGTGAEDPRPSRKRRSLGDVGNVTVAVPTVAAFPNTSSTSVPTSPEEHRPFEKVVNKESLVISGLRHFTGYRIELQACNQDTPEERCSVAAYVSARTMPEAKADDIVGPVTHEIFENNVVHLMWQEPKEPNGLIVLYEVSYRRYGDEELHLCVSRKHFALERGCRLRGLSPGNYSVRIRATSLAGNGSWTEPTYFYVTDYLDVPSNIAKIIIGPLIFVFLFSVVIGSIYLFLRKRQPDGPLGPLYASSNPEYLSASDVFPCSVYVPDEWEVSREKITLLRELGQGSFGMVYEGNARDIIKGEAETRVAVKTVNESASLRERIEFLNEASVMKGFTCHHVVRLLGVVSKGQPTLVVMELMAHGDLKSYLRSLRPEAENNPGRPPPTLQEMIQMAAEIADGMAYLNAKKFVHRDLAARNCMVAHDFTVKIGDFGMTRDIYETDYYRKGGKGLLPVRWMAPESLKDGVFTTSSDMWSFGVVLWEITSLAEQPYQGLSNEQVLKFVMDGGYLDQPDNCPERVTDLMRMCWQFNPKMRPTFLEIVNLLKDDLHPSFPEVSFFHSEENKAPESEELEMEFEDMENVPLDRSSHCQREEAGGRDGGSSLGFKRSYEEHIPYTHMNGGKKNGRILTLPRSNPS
Chain of DDR1 (Q08345 19-913): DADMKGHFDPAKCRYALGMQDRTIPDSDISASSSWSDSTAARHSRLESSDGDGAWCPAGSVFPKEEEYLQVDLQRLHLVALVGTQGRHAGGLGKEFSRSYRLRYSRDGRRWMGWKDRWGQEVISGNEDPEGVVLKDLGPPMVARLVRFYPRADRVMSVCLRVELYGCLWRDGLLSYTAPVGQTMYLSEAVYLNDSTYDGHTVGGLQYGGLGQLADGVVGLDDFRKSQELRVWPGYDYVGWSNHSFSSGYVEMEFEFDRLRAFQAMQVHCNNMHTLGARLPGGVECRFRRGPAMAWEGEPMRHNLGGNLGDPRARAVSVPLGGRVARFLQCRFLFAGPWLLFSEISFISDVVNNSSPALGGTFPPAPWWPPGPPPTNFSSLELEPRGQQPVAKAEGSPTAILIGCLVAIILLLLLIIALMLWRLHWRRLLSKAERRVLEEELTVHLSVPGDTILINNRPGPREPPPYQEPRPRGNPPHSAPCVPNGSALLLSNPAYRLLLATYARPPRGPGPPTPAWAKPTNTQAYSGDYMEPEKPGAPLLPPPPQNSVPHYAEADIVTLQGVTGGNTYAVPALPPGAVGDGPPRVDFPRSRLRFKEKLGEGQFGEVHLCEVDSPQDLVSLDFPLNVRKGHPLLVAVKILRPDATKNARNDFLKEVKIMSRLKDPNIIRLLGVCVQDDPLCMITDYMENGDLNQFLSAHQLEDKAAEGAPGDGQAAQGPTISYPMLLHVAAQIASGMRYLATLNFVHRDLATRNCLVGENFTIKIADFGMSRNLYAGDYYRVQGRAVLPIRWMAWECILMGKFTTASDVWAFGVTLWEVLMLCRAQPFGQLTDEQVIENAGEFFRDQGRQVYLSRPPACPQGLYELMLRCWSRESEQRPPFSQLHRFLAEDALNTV
Chain of PEAK1 (Q9H792 whole entry): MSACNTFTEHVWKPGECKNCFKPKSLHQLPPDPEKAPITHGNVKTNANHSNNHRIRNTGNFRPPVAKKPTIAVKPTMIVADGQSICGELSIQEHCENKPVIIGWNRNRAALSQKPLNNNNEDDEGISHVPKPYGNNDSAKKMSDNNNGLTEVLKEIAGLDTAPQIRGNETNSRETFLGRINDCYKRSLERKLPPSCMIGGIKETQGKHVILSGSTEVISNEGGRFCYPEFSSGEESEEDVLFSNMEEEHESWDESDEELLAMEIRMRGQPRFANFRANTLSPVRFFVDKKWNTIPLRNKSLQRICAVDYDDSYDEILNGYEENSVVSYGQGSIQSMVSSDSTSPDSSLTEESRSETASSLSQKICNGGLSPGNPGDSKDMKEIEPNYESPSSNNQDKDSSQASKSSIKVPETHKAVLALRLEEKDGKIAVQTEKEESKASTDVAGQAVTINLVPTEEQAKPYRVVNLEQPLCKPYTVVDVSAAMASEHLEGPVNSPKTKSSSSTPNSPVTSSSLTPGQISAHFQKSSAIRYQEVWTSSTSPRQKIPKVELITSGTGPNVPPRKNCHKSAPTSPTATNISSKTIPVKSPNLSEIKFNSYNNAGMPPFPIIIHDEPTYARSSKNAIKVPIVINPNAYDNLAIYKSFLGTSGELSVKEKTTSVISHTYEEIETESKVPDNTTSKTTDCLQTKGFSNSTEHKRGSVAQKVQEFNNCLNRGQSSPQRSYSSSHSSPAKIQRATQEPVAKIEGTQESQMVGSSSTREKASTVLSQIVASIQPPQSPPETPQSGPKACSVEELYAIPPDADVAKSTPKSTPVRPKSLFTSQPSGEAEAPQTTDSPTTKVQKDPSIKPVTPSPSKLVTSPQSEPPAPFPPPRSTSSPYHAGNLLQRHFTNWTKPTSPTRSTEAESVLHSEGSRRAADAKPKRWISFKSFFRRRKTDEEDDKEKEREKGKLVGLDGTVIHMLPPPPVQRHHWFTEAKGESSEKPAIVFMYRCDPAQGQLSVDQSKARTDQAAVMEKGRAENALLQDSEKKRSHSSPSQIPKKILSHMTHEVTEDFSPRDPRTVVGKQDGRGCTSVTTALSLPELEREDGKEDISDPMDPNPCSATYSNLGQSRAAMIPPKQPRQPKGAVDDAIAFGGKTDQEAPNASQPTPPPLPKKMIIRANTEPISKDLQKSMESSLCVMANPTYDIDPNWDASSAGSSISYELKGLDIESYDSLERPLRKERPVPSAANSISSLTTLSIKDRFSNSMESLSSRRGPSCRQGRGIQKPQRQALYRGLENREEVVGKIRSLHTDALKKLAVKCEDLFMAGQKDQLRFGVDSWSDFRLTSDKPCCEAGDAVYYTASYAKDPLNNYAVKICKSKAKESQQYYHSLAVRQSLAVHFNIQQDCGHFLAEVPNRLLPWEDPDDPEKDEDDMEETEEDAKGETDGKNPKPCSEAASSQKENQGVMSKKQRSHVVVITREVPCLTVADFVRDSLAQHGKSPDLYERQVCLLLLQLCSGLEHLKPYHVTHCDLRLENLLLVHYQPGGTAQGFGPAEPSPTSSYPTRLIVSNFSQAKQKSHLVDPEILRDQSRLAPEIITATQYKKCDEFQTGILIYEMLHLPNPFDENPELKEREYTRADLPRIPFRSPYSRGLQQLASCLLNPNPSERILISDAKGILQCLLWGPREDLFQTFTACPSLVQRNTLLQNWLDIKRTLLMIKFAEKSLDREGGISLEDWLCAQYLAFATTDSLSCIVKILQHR

Structure (SMILES) | inhibition at 1 µM [1] | inhibition at 1 µM [2] | inhibition at 1 µM [3] | inhibition at 1 µM [4] | inhibition at 1 µM [5] | inhibition at 1 µM [6] | inhibition at 1 µM [7] | inhibition at 1 µM [8] | inhibition at 1 µM [9] | inhibition at 1 µM [10] | inhibition at 1 µM [11] | inhibition at 1 µM [12] | inhibition at 1 µM [13] | inhibition at 1 µM [14] | inhibition at 1 µM [15] | inhibition at 1 µM [16] | inhibition at 1 µM [17] | inhibition at 1 µM [18] | inhibition at 1 µM [19]
COc1cc2nccc(Oc3ccc(NC(=O)C4(C(=O)Nc5ccc(F)cc5)CC4)cc3)c2cc1OC [Cabozantinib, reference compound] | 30% | 16% | 24% | 8% | 73% | 85% | 49% | 17% | 84% | 83% | 13% | 1% | 100% | 35% | 106% | 71% | 17% | 16% | 3%
COc1cc2nccc(Oc3ccc(NC(=O)C4(NC(=O)c5ccc(F)cc5)CC4)cc3F)c2cc1OC [Cbo-02, N-(1-((4-((6,7-diMethoxyquinolin-4-yl)oxy)-3-fluorophenyl)carbamoyl)cyclopropyl)-4-fluorobenzamide] | 38% | 22% | 1% | 5% | 34% | 38% | 87% | 50% | 99% | 61% | 14% | 1% | 51% | 31% | 84% | 9% | 14% | 30% | 4%
COc1cc2nccc(Oc3ccc(NC(=O)C4(NC(=O)c5ccc(F)cc5)CC4)cc3F)c2cc1Oc1ccc(N)cc1F [Cbo-10] | 80% | 29% | 2% | 7% | 52% | 55% | 97% | 90% | 83% | 80% | 6% | -1% | 50% | 94% | 98% | 56% | 55% | 69% | 8%
COc1cc2nccc(Oc3ccc(NC(=O)C4(NC(=O)c5ccc(F)cc5)CC4)cc3F)c2cc1Oc1c(F)cc(N)cc1F [Cbo-14] | 78% | 37% | -3% | 6% | 56% | 64% | 97% | 90% | 84% | 80% | 9% | 1% | 53% | 93% | 101% | 54% | 52% | 70% | 4%
COc1cc2nccc(Oc3ccc(NC(=O)C4(C(=O)Nc5ccc(F)cc5)CC4)cc3F)c2cc1Oc1ccc(N)cc1F [Cbo-23] | 58% | 5% | 5% | -1% | 56% | – | 66% | 54% | 67% | 93% | 5% | -9% | 92% | 72% | 100% | 100% | 32% | 54% | -3%
